In paper PMC9873280, “In silico identification and biological evaluation of a selective MAP4K4 inhibitor against pancreatic cancer” (Journal of Enzyme Inhibition and Medicinal Chemistry, 2023) one finds inhibition and IC50 data, which are given here for 15 compounds.

The structures appear in SMILES notation.

Common to all, as to format: biochemical
The target of test [1] is T1, MAP4K4 (Homo sapiens, UniProt O95819).
T1 construct: recombinant kinase of the ThermoFisher SelectScreen service
The experiment in a line: Z'LYTE kinase activity assay. The source says:
Z'LYTE kinase activity assay on MAP4K4

Test [2] deals with T1, MAP4K4. The experiment in a line: Z'LYTE kinase activity assay. The note with it: 1 h incubation with ATP.
The target in the next test is T2, MAP4K7 (Homo sapiens, UniProt Q9UKE5).
T2 construct: gene TNIK; recombinant kinase of a commercial 81-kinase panel
T2 sequence (Q9UKE5 whole entry): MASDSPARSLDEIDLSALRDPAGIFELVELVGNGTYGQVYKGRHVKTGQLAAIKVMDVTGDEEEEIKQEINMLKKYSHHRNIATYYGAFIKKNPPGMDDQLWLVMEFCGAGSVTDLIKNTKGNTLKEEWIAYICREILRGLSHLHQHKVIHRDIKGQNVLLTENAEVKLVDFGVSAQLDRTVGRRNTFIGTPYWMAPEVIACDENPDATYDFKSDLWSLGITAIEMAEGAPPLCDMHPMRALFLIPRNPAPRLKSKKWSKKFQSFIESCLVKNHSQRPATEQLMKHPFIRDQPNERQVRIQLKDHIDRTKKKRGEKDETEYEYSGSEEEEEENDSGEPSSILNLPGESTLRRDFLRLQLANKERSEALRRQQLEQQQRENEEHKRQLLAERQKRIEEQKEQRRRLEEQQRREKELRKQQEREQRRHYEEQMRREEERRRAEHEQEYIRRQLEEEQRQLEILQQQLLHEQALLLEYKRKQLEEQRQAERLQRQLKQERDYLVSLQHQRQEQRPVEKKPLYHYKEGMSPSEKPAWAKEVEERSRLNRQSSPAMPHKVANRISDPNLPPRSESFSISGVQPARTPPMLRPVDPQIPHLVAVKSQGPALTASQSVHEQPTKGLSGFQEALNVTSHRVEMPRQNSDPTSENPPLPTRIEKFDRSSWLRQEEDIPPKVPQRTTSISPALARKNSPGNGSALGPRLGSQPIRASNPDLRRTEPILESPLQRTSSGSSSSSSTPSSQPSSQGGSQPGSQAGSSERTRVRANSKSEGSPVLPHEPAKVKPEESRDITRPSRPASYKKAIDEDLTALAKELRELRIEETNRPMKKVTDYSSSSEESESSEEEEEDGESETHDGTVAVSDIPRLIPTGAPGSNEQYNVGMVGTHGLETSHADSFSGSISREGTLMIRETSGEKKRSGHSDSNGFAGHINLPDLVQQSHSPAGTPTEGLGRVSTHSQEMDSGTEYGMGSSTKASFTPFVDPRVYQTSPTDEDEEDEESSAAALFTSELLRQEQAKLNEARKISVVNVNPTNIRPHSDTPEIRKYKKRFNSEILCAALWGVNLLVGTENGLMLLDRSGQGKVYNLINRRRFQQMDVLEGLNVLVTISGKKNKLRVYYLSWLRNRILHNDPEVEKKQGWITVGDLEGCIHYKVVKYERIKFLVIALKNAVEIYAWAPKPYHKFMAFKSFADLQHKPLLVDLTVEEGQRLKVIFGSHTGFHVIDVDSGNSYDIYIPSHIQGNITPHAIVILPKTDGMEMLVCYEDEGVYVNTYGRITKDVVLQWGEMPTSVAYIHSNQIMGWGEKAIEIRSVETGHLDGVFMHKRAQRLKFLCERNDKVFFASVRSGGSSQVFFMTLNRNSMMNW
Briefly: kinase profiling panel. The note with it: read-out: % inhibition at 150 nM.

A further test has as its target T3, MAP4K5 (Homo sapiens, UniProt Q9Y4K4).
T3 construct: recombinant kinase of a commercial 81-kinase panel
Briefly: kinase profiling panel. The note with it: read-out: % inhibition at 150 nM.

The target in another test is T4, MAP4K6 (Homo sapiens, UniProt Q8N4C8).
T4 construct: gene MINK1; recombinant kinase of a commercial 81-kinase panel
T4 sequence (Q8N4C8 whole entry): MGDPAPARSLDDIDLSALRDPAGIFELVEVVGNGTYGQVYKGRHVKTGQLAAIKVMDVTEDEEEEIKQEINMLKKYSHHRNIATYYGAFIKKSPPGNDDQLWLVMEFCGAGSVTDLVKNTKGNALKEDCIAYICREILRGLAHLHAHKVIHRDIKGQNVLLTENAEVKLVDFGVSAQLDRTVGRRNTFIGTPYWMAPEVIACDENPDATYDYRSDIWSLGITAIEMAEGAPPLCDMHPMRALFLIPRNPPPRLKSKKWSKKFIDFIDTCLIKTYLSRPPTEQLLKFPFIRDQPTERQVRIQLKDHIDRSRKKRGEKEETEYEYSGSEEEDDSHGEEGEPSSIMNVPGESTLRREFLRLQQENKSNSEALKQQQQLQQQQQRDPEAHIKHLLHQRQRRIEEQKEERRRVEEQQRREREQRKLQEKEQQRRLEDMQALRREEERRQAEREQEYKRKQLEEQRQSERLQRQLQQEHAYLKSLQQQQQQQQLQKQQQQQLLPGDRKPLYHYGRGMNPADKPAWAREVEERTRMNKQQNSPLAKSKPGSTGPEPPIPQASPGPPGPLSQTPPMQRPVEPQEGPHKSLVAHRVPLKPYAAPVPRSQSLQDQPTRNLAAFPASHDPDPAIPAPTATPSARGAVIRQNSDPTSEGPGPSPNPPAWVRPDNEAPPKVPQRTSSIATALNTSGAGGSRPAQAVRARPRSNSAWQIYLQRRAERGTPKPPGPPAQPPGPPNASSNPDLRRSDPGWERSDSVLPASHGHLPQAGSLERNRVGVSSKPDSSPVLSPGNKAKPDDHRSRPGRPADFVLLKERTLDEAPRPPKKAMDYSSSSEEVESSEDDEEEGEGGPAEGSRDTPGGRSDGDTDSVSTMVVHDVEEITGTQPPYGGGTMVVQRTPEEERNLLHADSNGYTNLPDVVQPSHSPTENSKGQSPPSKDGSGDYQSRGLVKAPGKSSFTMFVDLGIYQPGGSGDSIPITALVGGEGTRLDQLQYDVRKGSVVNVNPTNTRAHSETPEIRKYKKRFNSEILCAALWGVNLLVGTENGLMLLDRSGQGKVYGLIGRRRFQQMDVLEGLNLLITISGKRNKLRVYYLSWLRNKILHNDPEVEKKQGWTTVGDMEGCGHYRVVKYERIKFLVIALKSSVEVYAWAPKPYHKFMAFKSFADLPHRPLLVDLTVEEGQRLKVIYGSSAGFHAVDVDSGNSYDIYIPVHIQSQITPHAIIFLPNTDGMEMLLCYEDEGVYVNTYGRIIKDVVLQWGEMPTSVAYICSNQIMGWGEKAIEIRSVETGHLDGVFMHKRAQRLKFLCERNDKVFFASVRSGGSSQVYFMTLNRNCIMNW
The experiment in a line: kinase profiling panel. The note with it: read-out: % inhibition at 150 nM.

T1 sequence (O95819 2-1239): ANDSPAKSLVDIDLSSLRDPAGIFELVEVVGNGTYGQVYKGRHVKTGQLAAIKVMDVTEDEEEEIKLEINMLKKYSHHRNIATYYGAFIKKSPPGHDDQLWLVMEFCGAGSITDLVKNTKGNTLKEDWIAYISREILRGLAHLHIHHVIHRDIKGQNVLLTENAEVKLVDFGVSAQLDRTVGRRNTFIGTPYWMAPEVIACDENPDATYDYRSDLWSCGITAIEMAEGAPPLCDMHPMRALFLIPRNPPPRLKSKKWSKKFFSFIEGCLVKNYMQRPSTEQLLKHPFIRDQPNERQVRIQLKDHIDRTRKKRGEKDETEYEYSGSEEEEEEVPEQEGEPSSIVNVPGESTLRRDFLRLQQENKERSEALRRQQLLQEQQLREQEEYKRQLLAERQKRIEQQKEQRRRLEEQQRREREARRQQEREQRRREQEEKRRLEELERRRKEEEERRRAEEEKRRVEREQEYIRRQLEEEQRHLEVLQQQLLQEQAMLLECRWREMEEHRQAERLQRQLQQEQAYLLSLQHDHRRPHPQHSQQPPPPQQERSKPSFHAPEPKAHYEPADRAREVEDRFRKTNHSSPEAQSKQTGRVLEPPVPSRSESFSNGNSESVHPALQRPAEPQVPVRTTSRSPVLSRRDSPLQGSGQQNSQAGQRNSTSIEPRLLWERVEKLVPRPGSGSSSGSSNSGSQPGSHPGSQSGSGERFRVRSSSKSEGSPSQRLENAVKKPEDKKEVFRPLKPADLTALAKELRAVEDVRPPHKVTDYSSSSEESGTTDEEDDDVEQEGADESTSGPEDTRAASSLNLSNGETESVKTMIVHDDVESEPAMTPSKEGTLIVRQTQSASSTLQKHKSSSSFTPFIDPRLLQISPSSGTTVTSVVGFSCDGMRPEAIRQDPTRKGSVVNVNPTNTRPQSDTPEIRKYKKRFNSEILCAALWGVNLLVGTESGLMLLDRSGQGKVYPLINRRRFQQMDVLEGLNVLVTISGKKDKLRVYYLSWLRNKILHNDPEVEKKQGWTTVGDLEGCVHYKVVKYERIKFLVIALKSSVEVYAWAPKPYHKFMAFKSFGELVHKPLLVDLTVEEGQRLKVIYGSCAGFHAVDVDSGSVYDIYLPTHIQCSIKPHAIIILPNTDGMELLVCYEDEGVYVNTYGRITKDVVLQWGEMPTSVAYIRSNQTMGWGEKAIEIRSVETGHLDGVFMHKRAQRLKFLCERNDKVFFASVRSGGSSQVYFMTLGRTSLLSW
T3 sequence (Q9Y4K4 whole entry): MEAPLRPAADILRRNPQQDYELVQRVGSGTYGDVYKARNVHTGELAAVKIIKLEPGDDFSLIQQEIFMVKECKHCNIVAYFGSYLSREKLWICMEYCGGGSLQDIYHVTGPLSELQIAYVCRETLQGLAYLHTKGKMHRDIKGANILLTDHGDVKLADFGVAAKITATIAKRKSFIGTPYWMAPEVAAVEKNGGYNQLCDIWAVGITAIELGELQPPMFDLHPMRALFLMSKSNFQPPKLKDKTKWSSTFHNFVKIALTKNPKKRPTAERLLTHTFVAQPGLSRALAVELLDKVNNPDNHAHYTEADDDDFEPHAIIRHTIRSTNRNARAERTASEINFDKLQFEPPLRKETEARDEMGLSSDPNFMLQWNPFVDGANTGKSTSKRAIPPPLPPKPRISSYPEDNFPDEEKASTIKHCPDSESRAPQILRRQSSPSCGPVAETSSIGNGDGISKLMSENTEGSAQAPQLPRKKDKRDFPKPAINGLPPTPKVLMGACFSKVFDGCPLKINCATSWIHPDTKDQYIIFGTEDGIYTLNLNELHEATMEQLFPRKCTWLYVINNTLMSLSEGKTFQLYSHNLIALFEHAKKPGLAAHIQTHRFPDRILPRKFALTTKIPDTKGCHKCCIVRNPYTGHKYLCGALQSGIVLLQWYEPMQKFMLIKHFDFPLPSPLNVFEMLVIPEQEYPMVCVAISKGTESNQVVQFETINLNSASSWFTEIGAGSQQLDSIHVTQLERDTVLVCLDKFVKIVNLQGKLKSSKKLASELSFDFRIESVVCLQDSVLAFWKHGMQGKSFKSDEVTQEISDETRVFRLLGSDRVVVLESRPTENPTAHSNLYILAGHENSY

Usually inhibition stands for the percentage by which the read-out fell short of the control. On MAP4K4 [1], `COc1ccccc1CNC(=O)c1ccc2c(c1)NC(=O)C(=Cc1ccc(Cl)cc1)O2` [F389-0092] returned an inhibition at 1 µM of 68%. On the same count and under the same terms, next, `COc1cccc(CNC(=O)c2ccc3c(c2)NC(=O)C(=Cc2ccc(Cl)cc2)O3)c1` [F389-0093]: 70%; `O=C1Nc2cc(C(=O)NCc3ccccc3F)ccc2OC1=Cc1ccc(Cl)cc1` [F389-0161]: 72%.

`CCOc1cc(CNC(=O)c2ccc3c(c2)NC(=O)C(=Cc2ccc(Cl)cc2)O3)ccc1OC` [F389-0164]: at MAP4K4 [1], the inhibition at 1 µM worked out at 67%. What is called IC50 is the concentration needed to halve the response being measured. Regarding `CN1CCN(CCNC(=O)c2ccc3c(c2)NC(=O)C(=Cc2ccc(Cl)cc2)O3)CC1` [F389-0167], the IC50 at MAP4K4 [2] turned out to be 276 nM. On the same count and under the same terms, next, `CCOc1ccc(CNC(=O)c2ccc3c(c2)NC(=O)C(=Cc2ccc(Cl)cc2)O3)cc1OC` [F389-0169]: 337 nM; `O=C1Nc2cc(C(=O)NCc3cccc(F)c3)ccc2OC1=Cc1ccc(Cl)cc1` [F389-0183]: 334 nM. `O=C1Nc2cc(C(=O)NCc3ccccc3Cl)ccc2OC1=Cc1cccc(Cl)c1` [F389-0592]: testing at 1 µM against MAP4K4 [1] gave an inhibition of 57%. `COc1ccc(CCNC(=O)c2ccc3c(c2)NC(=O)C(=Cc2cccc(Cl)c2)O3)cc1OC` [F389-0604]: the IC50 on MAP4K4 [2] came to 189 nM. `COc1cccc(CNC(=O)c2ccc3c(c2)NC(=O)C(=Cc2cccc(Cl)c2)O3)c1` [F389-0669] yielded an inhibition at 1 µM on MAP4K4 [1] of 59%. Still for that read-out and setting: under `CCOc1ccccc1CNC(=O)c1ccc2c(c1)NC(=O)C(=Cc1cccc(Cl)c1)O2` [F389-0738] stands 57%. `CCOc1ccc(CNC(=O)c2ccc3c(c2)NC(=O)C(=Cc2cccc(Cl)c2)O3)cc1OC` [F389-0745]: on MAP4K4 [2], half-maximal inhibition (IC50) was put at 384 nM.

As for `CSc1ccc(CNC(=O)c2ccc3c(c2)NC(=O)C(=Cc2cccc(Cl)c2)O3)cc1` [F389-0746], the inhibition at 0.15 µM on MAP4K7 amounted to 27%; on MAP4K5 it was 17%; on MAP4K6, 44%. Moreover, half-maximal inhibition on MAP4K4 [2] (IC50) required 121 nM.

`CCOc1ccc(CNC(=O)c2ccc3c(c2)NC(=O)C(=Cc2cccc(Cl)c2)O3)cc1` [F389-0750]: the inhibition at 1 µM at MAP4K4 [1] worked out at 67%. `O=C1Nc2cc(C(=O)NCc3cccc(F)c3)ccc2OC1=Cc1cccc(Cl)c1` [F389-0759] came in with an inhibition at 1 µM against MAP4K4 [1] of 61%.
